Measured values as given in the supplement of paper PMC7695840.
“And” between values parts separate entries of the source, which are not always exact repeats. Equal entries are not always repeated. Structures can show the parent of a compound that is named as a salt.

Columns and labels:
[1] = tested on: Staphylococcus aureus MW2 (mecA+); assay: IC50 (growth, competition assay); conditions: cefoxitin: subinhibitory
Summary of the method: (§1)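 Pre-induced, 1:1-mixed fluorescent S. aureus MW2 mecA+ and ΔmecA strains were grown 20 h at 37 °C, 90% humidity, unshaken, in LB with a daily-set subinhibitory cefoxitin dose, in 1536-well plates. Compounds were given on five- or nine-point 2-fold gradients, in two dye-swapped replicates. DsRed (540/590) and GFP (485/520) were scaled per plate between single-strain control medians, with No Treatment then set to 0.5. Per-strain IC50 was the dose halving the No Treatment signal, or the maximal signal.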

[2] = tested on: Staphylococcus aureus MW2 delta-mecA (mecA-); assay: IC50 (growth, competition assay); conditions: cefoxitin: subinhibitory
Summary of the method: as §1

Row | Compound | IC50 ([1]; fluorescent label: DsRed) | IC50 ([1]; fluorescent label: GFP) | IC50 ([2]; fluorescent label: DsRed) | IC50 ([2]; fluorescent label: GFP)
1 | O=C1NC(=O)/C(=C/c2cccc(C(F)(F)F)c2)S1 [SMI-4a] | < 9.85 µM | < 9.85 µM | < 9.85 µM | 12.2 µM and 14.6 µM
2 | CN(C)c1ccc(O)c2c1C[C@H]1C[C@H]3[C@H](N(C)C)C(O)=C(C(N)=O)C(=O)[C@@]3(O)C(O)=C1C2=O [SOLODYN] | < 9.85 µM | < 9.85 µM | < 9.85 µM | < 9.85 µM
3 | CO/N=C(\C(=O)N[C@@H]1C(=O)N2C(C(=O)OCOC(=O)C(C)(C)C)=C(/C=C\c3scnc3C)CS[C@H]12)c1csc(N)n1 [SPECTRACEF] | 32.9 µM | 18.7 µM | < 9.85 µM | < 9.85 µM
4 | COc1cccc(OC)c1C(=O)N[C@@H]1C(=O)N2[C@@H]1SC(C)(C)[C@@H]2C(=O)O [STAPHCILLIN] | < 9.85 µM | < 9.85 µM | < 9.85 µM | < 9.85 µM
5 | CN1CCN(CCCN2c3ccccc3Sc3ccc(C(F)(F)F)cc32)CC1 [STELAZINE] | 55 µM | 55.8 µM | 18.1 µM | 15.9 µM
6 | COC(=O)C1=C(C)NC(C)=C(C(=O)OCC(C)C)C1c1ccccc1[N+](=O)[O-] (configuration not stated) [SULAR] | > 150 µM | > 150 µM | 78 µM | 51.8 µM
7 | CCCCCCCCNC(C)C(O)c1ccc(SC(C)C)cc1 (configuration not stated) [SULOCTIDIL] | 29.6 µM | 27.5 µM | 17.3 µM | 24.4 µM
8 | O=C(O)c1cn(-c2ccc(F)cc2)c2cc(N3CCNCC3)c(F)cc2c1=O [Sarafloxacin HCl] | < 0.498 µM | < 0.498 µM | < 0.498 µM | < 0.498 µM
9 | C=C[C@](C)(O)CC[C@@H]1[C@@]2(C)CCCC(C)(C)[C@@H]2CC[C@@]1(C)O [Sclareol] | 99.3 µM | 65.2 µM | 25 µM | 19.7 µM
10 | CN[C@H]1CC[C@@H](c2ccc(Cl)c(Cl)c2)c2ccccc21 [Sertraline HCl] | 94.5 µM | 111 µM | 12 µM | < 9.85 µM
11 | CN[C@H]1CC[C@@H](c2ccc(Cl)c(Cl)c2)c2ccccc21 [Sertraline hydrochloride] | 96.4 µM | 77.9 µM | 22.8 µM | 33.7 µM
12 | N[C@@H]1CN(c2c(F)cc3c(=O)c(C(=O)O)cn([C@@H]4C[C@@H]4F)c3c2Cl)CC12CC2 [Sitafloxacin hydrate] | < 0.498 µM | < 0.498 µM | < 0.498 µM | < 0.498 µM
13 | CNC(=O)c1cc(Oc2ccc(NC(=O)Nc3ccc(Cl)c(C(F)(F)F)c3)cc2)ccn1 [Sorafenib] | < 9.85 µM | < 9.85 µM | < 9.85 µM | < 9.85 µM
14 | O=C1NC(=O)[C@@]2(CCOc3ccc(F)cc32)N1 [Sorbinil] | < 9.85 µM | < 9.85 µM | < 9.85 µM | < 9.85 µM
15 | C[C@@H]1CN(c2c(F)c(N)c3c(=O)c(C(=O)O)cn(C4CC4)c3c2F)C[C@H](C)N1 [Sparfloxacin] | 0.78 µM | 0.746 µM | < 0.498 µM | < 0.498 µM
16 | COc1cc2ncnc(Nc3ccc(Oc4ccccc4)cc3)c2cc1OC [Src I1] | 29 µM | 30.7 µM | 30.6 µM | 25.3 µM
17 | O=[N+]([O-])c1ccc2c(c1)S(=O)(=O)C=C2 [Stattic] | 35.8 µM and 35.3 µM | 35.4 µM and 56.2 µM | 25.7 µM and 16.6 µM | 13.6 µM and < 9.85 µM
18 | CC(C)n1cnc2c(NCCc3ccc(O)cc3)nc(-c3csc4ccccc34)nc21 [StemRegenin 1] | 25.6 µM | 29.9 µM | 15.1 µM | 11.2 µM
19 | CC(=O)/C=C1/C(=O)N(C)c2ccccc21 [Supercinnamaldehyde] | 46.8 µM | 60.4 µM | < 9.85 µM | < 9.85 µM
20 | CC(C)(O)CC(=O)NCCn1ccc2ncnc(Nc3ccc(Oc4cccc(C(F)(F)F)c4)c(Cl)c3)c21 [TAK-285] | 26.6 µM | 28.3 µM | < 9.85 µM | < 9.85 µM
21 | Cc1cc(OCCCS(C)(=O)=O)cc(C)c1-c1cccc(COc2ccc3c(c2)OC[C@H]3CC(=O)O)c1 [TAK-875] | < 9.85 µM and 22.5 µM | 14.9 µM and 29.2 µM | < 9.85 µM | < 9.85 µM and 12.2 µM
22 | O=C(OC[C@H]1O[C@@H](OC(=O)c2cc(O)c(O)c(OC(=O)c3cc(O)c(O)c(O)c3)c2)[C@H](OC(=O)c2cc(O)c(O)c(OC(=O)c3cc(O)c(O)c(O)c3)c2)[C@@H](OC(=O)c2cc(O)c(O)c(OC(=O)c3cc(O)c(O)c(O)c3)c2)[C@@H]1OC(=O)c1cc(O)c(O)c(OC(=O)c2cc(O)c(O)c(O)c2)c1)c1cc(O)c(O)c(OC(=O)c2cc(O)c(O)c(O)c2)c1 [TANNIC ACID] | 57 µM | 57.2 µM | 44 µM | 55.3 µM
23 | Brc1c(Br)c(Br)c2[nH]cnc2c1Br [TBBz] | 12.4 µM | 30.5 µM | 11.7 µM | 11.3 µM
24 | Cn1sc(=O)n(Cc2ccccc2)c1=O [TDZD-8] | < 9.85 µM | < 9.85 µM | < 9.85 µM | < 9.85 µM
25 | CN1CCN(c2c(F)cc3c(=O)c(C(=O)O)cn4c3c2SCC4)CC1 [TEBRAXIN] | < 9.85 µM | < 9.85 µM | < 9.85 µM | < 9.85 µM
26 | NC(=O)c1cnccn1 [TEBRAZID] | 26.7 µM | 35.6 µM | 18.2 µM | 20.3 µM
27 | Cc1onc(-c2ccccc2Cl)c1C(=O)N[C@@H]1C(=O)N2[C@@H]1SC(C)(C)[C@@H]2C(=O)O [TEGOPEN] | < 9.85 µM | < 9.85 µM | < 9.85 µM | < 9.85 µM
28 | CCC(Cc1c(I)cc(I)c(N)c1I)C(=O)O (configuration not stated) [TELEPAQUE] | 10.4 µM | 27.5 µM | < 9.85 µM | < 9.85 µM
